Assay results: PMC8591808 (Molecular Brain, 2021)

Molecular target: T1, Cav3.2 T-type calcium channel (Homo sapiens, UniProt O95180)
T1 construct: gene CACNA1H
Assay: whole-cell patch clamp, tsA-201 cells transiently expressing Cav3.[…]; partial block (plateau about […])
Type: cell-based

T1 sequence (O95180 whole entry): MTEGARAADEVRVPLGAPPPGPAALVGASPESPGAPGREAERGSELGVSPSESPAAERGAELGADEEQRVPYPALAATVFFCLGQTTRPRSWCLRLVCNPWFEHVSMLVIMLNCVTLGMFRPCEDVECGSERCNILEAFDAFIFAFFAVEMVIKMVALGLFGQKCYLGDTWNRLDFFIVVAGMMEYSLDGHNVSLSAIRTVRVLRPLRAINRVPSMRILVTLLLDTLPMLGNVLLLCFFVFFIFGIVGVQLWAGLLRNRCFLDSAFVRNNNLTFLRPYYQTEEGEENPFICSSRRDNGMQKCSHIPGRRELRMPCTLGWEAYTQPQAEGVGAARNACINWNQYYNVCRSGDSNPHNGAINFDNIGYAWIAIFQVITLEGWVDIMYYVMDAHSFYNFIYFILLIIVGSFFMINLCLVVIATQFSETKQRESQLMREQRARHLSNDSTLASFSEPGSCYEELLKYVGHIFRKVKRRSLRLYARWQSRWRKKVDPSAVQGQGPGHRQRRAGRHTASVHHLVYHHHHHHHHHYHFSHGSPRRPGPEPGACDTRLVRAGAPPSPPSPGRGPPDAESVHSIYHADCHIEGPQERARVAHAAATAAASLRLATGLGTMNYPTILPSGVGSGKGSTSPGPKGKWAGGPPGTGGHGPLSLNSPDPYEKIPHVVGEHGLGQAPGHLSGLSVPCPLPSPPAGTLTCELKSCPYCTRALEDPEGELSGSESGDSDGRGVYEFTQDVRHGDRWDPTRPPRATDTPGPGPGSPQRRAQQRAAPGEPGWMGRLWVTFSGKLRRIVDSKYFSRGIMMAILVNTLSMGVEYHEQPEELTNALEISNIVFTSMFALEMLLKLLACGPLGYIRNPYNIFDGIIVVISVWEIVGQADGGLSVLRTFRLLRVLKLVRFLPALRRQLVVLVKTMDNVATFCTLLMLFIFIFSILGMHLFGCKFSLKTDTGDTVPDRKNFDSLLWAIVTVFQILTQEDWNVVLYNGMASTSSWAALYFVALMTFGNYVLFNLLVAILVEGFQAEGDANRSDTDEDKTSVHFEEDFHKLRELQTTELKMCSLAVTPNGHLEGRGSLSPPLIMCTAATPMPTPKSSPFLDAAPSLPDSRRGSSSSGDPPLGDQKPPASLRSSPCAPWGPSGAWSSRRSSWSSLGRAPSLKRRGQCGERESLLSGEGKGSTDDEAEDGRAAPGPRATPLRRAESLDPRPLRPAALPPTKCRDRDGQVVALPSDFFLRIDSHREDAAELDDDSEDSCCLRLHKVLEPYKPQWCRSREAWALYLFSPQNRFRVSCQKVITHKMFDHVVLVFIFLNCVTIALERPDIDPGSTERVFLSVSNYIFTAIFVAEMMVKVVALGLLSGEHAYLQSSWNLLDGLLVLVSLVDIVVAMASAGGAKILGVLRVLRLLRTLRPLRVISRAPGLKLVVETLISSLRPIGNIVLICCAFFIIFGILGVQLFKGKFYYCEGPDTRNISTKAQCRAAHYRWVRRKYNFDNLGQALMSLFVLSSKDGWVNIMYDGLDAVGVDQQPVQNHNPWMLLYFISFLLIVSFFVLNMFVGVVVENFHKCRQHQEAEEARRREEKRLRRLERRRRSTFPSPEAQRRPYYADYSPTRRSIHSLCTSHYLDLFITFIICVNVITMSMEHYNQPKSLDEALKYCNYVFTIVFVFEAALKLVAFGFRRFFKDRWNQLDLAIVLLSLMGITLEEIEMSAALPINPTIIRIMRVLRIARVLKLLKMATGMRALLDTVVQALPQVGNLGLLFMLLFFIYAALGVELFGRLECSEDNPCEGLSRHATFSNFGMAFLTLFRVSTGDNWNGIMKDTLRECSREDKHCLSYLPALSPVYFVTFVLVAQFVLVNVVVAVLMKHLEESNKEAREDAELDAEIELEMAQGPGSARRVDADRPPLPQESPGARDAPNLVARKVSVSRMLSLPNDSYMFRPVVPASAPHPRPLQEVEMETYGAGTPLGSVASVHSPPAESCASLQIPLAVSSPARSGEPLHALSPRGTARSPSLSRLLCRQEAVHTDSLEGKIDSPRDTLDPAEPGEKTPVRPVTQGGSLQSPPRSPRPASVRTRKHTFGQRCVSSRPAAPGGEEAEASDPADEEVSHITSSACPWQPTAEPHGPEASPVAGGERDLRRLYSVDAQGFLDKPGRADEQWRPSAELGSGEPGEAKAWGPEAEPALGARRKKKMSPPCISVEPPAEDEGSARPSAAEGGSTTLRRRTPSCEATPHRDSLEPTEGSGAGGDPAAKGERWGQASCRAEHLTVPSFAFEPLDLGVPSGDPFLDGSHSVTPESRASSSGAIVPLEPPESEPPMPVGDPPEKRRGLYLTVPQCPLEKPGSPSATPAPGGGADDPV

SMILES	IC50 [µM]
C=C1C2CCC(C2)C1(C)C (centres unmarked) [camphene]	7.7 ± 1.8
CC(C)=CCC[C@](C)(O)[C@@H]1CC=C(C)CC1 [alpha-bisabolol]	4.5 ± 1.1
